Results reported in patent publication US8653271B2 (priority 2006, dated 2014).

Columns and labels:
[1] = Predicting plasma concentrations from in vitro permeation studies; conditions: for plasma level predicted with 5.6-fold guinea pig/human skin factor: 6-β-naltrexol equivalents; for Predicted CSS of 6-β-naltrexol: Predicted from in vitro human skin diffusion data
Description: To predict the plasma concentration of 6-β-naltrexol after application of the gel formulation containing either the codrug or the control formulation, the following equation was used: […]
where CSS is the predicted steady state plasma concentration (ng/ml); JSS is the steady-state flux from in vitro permeation in Table 4 from previous studies; A is the area of the skin in contact with the formulation (14.5 cm^2); Cl is the total body clearance. […] Guinea pig skin is often more permeable than human skin, especially when the stratum corneum is the major rate-limiting step in the absorption process.

[2] = Differential scanning calorimetry; assay type: physicochemical; conditions: for Mean activity of solid @ T = 25° C., a2: calculated from melting point and heat of fusion; for Heat of fusion, ΔHf: ±s.d., n = 3
[3] = Table 4; values obtained from Kiptoo et al.; cited from earlier work
[4] = Plasma hydrolysis of the carbonate codrug; assay type: in vitro ADME, guinea pig; conditions: for Guinea pig plasma half-life: guinea pig plasma in vitro at 37° C.
Protocol: Guinea pig plasma, which was stored at −20° C., was thawed to room temperature. Known and sub-saturated amounts of the codrug (50 nmol) were added to approximately 2.0 ml of the guinea pig plasma and vortexed. Two-hundred μl aliquots of the spiked plasma were distributed into sealed vials, and incubated at 37° C. Samples were withdrawn at predetermined time intervals; 0, 0.5, 1, 2, 4, 6, 9, 24, 30, and 48 h. 500 μl of ACN was added to each sample to precipitate plasma protein. Each sample was vortexed and centrifuged at 10,000×g for 15 min. The supernatant was separated and evaporated under nitrogen at room temperature, and the residue was reconstituted with ACN for high-pressure liquid chromatography (HPLC) analysis. A standard curve was prepared from drug-spiked plasma samples processed by the same method. The amounts of the codrug remaining or parent drugs released were plotted against time. These hydrolytic profiles were fit to previously developed mathematical models using nonlinear least-squares regression analysis ([…]®, Micromath Inc., Salt Lake City, Utah) as described by the equations below: […]

[5] = Stratum corneum/vehicle partition coefficient studies; assay type: in vitro ADME, human; conditions: mineral oil vehicle, 32° C., 48 h; no units
Protocol: Human epidermis with stratum corneum (SC) side facing up was incubated on filter paper soaked with 0.1% trypsin in 0.5% sodium bicarbonate solution at 37° C. for 3 h. The SC membrane was separated and dried in a vacuum dessicator. After 24 h, the SC was dipped in acetone for 20 s to remove sebaceous lipids and dried again.
Approximately 5 mg of SC was equilibrated with sub-saturated drug solutions in 0.5 g of mineral oil solution at 32° C. for 48 h. Two different levels of sub-saturated drug solutions, 10 and 20 nmol in 0.5 g of mineral oil, were used in SC/vehicle partition coefficient studies. However, irrespective of the drug concentrations used, the ratio derived should always be the same since the partition coefficient measurement is an equilibrium phenomenon. An aliquot of the mineral oil solution (10 μl) was withdrawn at the end of the study and was diluted to 1000 μl with acetonitrile. The samples were then analyzed by HPLC. The amount of the drug partitioned into the SC was measured by subtracting the amount present in the mineral oil after equilibration from the initial drug concentration in the mineral oil. The partition coefficient ratio was expressed as the concentration of the drug in 1 g of SC divided by the concentration of the drug in 1 g of mineral oil.

[6] = human skin; for Mean permeability coefficient (KP × 10^3): from steady-state flux and donor solubility; for Flux from mineral oil: saturated solution in light mineral oil, 32° C., 48 h, codrug in 6-β-naltrexol equivalents
Protocol: Human skin harvested during abdominal reduction surgery was used for the diffusion studies. Skin sections were obtained by using a Padgett dermatome set to 250 μm; these sections were stored at −20° C. Stored skin samples were thawed to room temperature at the time of the experiment. A PermeGear flow-through (In-Line, Riegelsville, Pa., USA) diffusion cell system was used for the skin permeation studies. Skin surface temperature was maintained at 32° C. with a circulating water bath. Data was collected by using human skin from a single donor with three cells of 6-β-naltrexol and four cells CB-NTXOL-BUPOH. Because of normal human skin inter-subject permeation variability, the codrug was compared against 6-β-naltrexol permeation within each individual skin sample. These studies were repeated three times with skin from different human subject donors. The receiver solution was HEPES-buffered Hanks' balanced salt solution pH 7.4 set at a flow rate of 1.1 ml/h. […] A saturated solution of 6-β-naltrexol or CB-NTXOL-BUPOH in light mineral oil was applied to the skin in order to maintain a maximum and constant thermodynamic activity of the drug. Each cell was charged with 0.25 ml of the respective drug solution. […] All samples were immediately processed by solid phase extraction, evaporated under nitrogen, reconstituted, and analyzed for drug content by HPLC. The human tissue use was approved by the University of Kentucky Institutional Review Board.
Cumulative quantity of drug collected in the receiver compartment was plotted as a function of time. The flux value for a given experiment was obtained from the slope of the steady-state portion of the cumulative amount of drug permeated vs. time plot. Apparent permeability coefficient values were computed from Fick's First Law of diffusion:
Sink conditions were maintained in the receiver throughout the experiment, so ΔC was approximated by the drug concentration (solubility in this case) in the donor compartment.
The skin tissue was rinsed with filtered water and blotted with a paper towel. The tissue was tape-stripped twice to remove surface formulation. The area of skin with drug contact was cut out, chopped into tiny pieces, and placed in a pre-weighed vial. The vial was weighed to calculate the mass of the skin. Ten milliliters of acetonitrile was added to each vial, the vials vortexed, sonicated for 10 min, and placed in a shaker overnight. The following day, a 1 ml sample was obtained from the vials and placed in autosampler vials for analysis. […] Flux values and skin concentrations for each of the drugs were reported as mean±S.D and were statistically compared using a paired Student's t-test. Flux enhancement as well as drug disposition in the skin were considered significant at p<0.05.

[7] = human skin, values obtained from Kiptoo et al., cited from earlier work; for In vitro flux: codrug as NTXOL equivalent flux
[8] = cumulative 6-β-naltrexol equivalents permeated

Compound | plasma level predicted with 5.6-fold guinea pig/human skin factor [1] | Predicted CSS of 6-β-naltrexol ([1]; listed as CB-NTXOL-BUPOH) | Mean activity of solid @ T = 25° C., a2 [2] | Heat of fusion, ΔHf [2] | Light mineral oil solubility [3] | Guinea pig plasma half-life ([4]; listed as CB-NTXOL-BUPOH) | Guinea pig plasma half-life ([4]; listed as codrug) | hydrolysis in guinea pig plasma compared to pH 7.4 phosphate buffer ([4]; in vitro) | SC/Vehicle partition coefficient, PC [5] | share of 6-β-naltrexol flux from intact CB-NTXOL-BUPOH [6, 8] | share of 6-β-naltrexol flux originating from skin hydrolysis of codrug [6, 8] | Mean permeability coefficient (KP × 10^3) [6] | Flux from mineral oil [6] | In vitro flux [7] | In vitro lag time [7] | Predicted CSS of 6-β-naltrexol [1] | Predicted CSS of 6-β-naltrexol ([1]; listed as NTXOL) | Guinea pig plasma half-life [4]
Cc1c(-c2cccc(Cl)c2)oc(=O)n1C(C)(C)COC(=O)Oc1ccc2c3c1OC1C(O)CCC4(O)C(C2)N(CC2CC2)CCC314 (stereo not drawn) [Compound 26] | 3.9 ng/mL | 0.7 ± 0.3 ng/mL | 0.20 | 3.031 ± 0.019 kcal/mol | 2880 ± 90 µM | 8.7 h | approximately 8.7 h | almost three-fold faster hydrolysis | 200.61 | approximately 35% | 65% | 0.47 cm/h | 1.34 nmol cm^−2 h^−1 | 1.34 ± 0.35 nmol cm^−2 h^−1 | 12.10 ± 0.77 h |  |  | 
Oc1ccc2c3c1O[C@H]1[C@H](O)CC[C@@]4(O)[C@@H](C2)N(CC2CC2)CC[C@]314 [Compound 2, 6-β-naltrexol] | 1.1 ng/mL |  | 0.12 | 3.597 ± 0.0478 kcal/mol | 30 ± 10 µM |  |  |  | 73.91 |  |  | 12.00 cm/h | 0.36 nmol cm^−2 h^−1 | 0.36 ± 0.15 nmol cm^−2 h^−1 | 15.72 ± 1.76 h | 0.2 ± 0.1 ng/mL | 0.2 ± 0.1 ng/mL | stable
